Results from ChEMBL document CHEMBL1151034, “De novo design of nonpeptidic HIV-1 protease inhibitors: Incorporation of structural water” (Bioorg Med Chem Lett, 1994).

What was measured:
[1] = target: Human immunodeficiency virus type 1 protease (Human immunodeficiency virus 1, UniProt Q72874); assay: (§1) Inhibitory activity against HIV-1 protease
[2] = target: Human immunodeficiency virus type 1 protease (Human immunodeficiency virus 1) (UniProt Q72874); assay: as §1; conditions: concentration not given here
[3] = target: Human immunodeficiency virus type 1 protease (Human immunodeficiency virus 1) (UniProt Q72874); conditions: 100 uM

| inhibition [2] | SMILES | IC50 [1] | inhibition [3] |
| --- | --- | --- | --- |
| – | C=CCN1C(=O)N(CC=C)[C@@H](Cc2ccccc2)C(O)[C@@H]1Cc1ccccc1 | 53 µM | – |
| – | O=C1N(CC2CC2)[C@@H](Cc2ccccc2)C(O)[C@H](Cc2ccccc2)N1CC1CC1 | 9 µM | – |
| 6% | O=C1N(Cc2ccc3ccccc3c2)[C@@H](Cc2ccccc2)C(O)[C@H](Cc2ccccc2)N1Cc1ccc2ccccc2c1 | – | – |
| – | O=C1N[C@@H](Cc2ccccc2)C(O)[C@H](Cc2ccccc2)N1 | > 100 µM | 35% |
| – | O=C1N(Cc2ccccc2)[C@@H](Cc2ccccc2)C(O)[C@H](Cc2ccccc2)N1Cc1ccccc1 | 89 µM | – |
